Tests used:
Assay type in all cases: in vivo, mice
[1] = tested on: basic fibroblast growth factor (bFGF); assay: Endogenous basic fibroblast growth factor (bFGF) in the wound; details: day 10 after wound; average; p≦0.05
Protocol: FIG. 1 is a graph of endogenous basic fibroblast growth factor (bFGF)(pg/cm2) over time (days after wounding) of mice treated with TNP-470 (solid circles) and controls that were not treated (open circles). Full thickness mouse wounds were made in adult mice, the majority of whom were six to eight weeks old and some of whom were fourteen to sixteen weeks old. Mice were pretreated for sixty days with TNP-470, then wounds were made, and healing monitored. Mice were treated with 30 mg/kg TNP-470 administered subcutaneously every other day. Mice were treated essentially the same as described in Example 1.

[2] = tested on: linear wounds; assay: Breaking strength (tensile strength) of linear wounds; details: for inhibition of breaking strength: systemic, FIG. 3, n=280 mice, statistically significant
Protocol: FIG. 3 is a graph of breaking strength (tensile strength) of linear wounds after systemic administration of TNP-470 days −20 to 0; days 0 to 4; days 0 to 12; days 5 to 12; and control, measured on days 4, 7 and 12 after wounding. Mice were treated essentially the same as described in Example 1. FIG. 3 (n=280 mice)graphs breaking strength of linear wounds after systemic administration of TNP-470. Breaking strength was inhibited 36% on post wound day 7 and 43% on post wound day 12. This was statistically significant. The wounds were inhibited if TNP-470 was given on post wound days 0, 2, 4 or post wound days 0, 2, 4, 6, 8, and 10.

[3] = tested on: full thickness wounds; assay: Wound closure / contraction of full thickness wounds
Description: FIG. 2 is a graph of percent wounds open over time (days after wounding) for mice treated with TNP-470 for different dosage regimes: pretreatment days −60 to day 0; treated with TNP-470 days 5 to 18; treated with TNP-470 days 0 to 18; and treated with TNP-470 days 0, 2 and 4. Full thickness mouse wounds were made in adult mice, the majority of whom were six to eight weeks old and some of whom were fourteen to sixteen weeks old. Mice were pretreated for sixty days with TNP-470, then wounds were made, and healing monitored. Mice were treated with 30 mg/kg TNP-470 administered subcutaneously every other day. Mice were treated essentially the same as described in Example 1. Histological analysis of the wounds in the control and treated mice compared contraction of full thickness wounds in mice treated with systemic TNP-470 (AGM 1470), every other day after the wound is made, with untreated mice. Treatment with TNP-470 every other day after the wound is made (at a dose identical to that which results in maximal tumor inhibition) causes a 5-day delay in the complete contraction of the wound.

[4] = tested on: full thickness mouse wounds; assay: Histology of full thickness mouse wounds (hematoxylin and eosin) after TNP-470 treatment
Protocol: Full thickness mouse wounds were made in adult mice, the majority of whom were six to eight weeks old and some of whom were fourteen to sixteen weeks old. Mice were pretreated for sixty days with TNP-470, then wounds were made, and healing monitored. Mice were treated with 30 mg/kg TNP-470 administered subcutaneously every other day. Histological micrographs of open mouse wounds harvested at 7, 12, and 17 days post excision were made. The biopsies were fixed, embedded, sectioned and stained with hematoxylin and eosin.

[5] = given on post wound days 0, 2, 4, or post wound days 0, 2, 4, 6, 8, and 10
[6] = 17 days post excision, vs untreated

CO[C@@H]1[C@H](OC(=O)NC(=O)CCl)CC[C@]2(CO2)[C@H]1[C@@]1(C)O[C@@H]1CC=C(C)C [TNP-470, 0-chloroacetylcarbamoyl-Fumagillol]
reduction of bFGF concentration in wound [1]: 37% | breaking strength of wounds [2, 5]: inhibited | inhibition of breaking strength ([2]; post wound day 7): 36% | inhibition of breaking strength ([2]; post wound day 12): 43% | wound healing slowed, time to full contraction ([3]; FIG. 2, n=440 mice, statistically significant): 5 days | wound healing [3, 5]: remained inhibited | delay in the complete contraction of the wound ([3]; systemic, every other day after the wound is made, dose of maximal tumor inhibition): 5 days | blood vessels in healing wound granulation tissue ([4]; 7 days post excision, 30 mg/kg s.c. every other day, vs untreated): relatively lower density of blood vessels | blood vessels in granulation tissue under re-epithelialized surface ([4]; 12 days post excision, wound not completely closed, vs untreated): fewer vessels with smaller diameters | blood vessels in mature granulation tissue of healed wound [4, 6]: reduction in the number of vessels | density of mesenchymal cells in granulation tissue [4, 6]: continued higher density of mesenchymal cells | scar formation (histologic findings) ([4]; overall, 7, 12 and 17 days): severely retarded scar formation
